Where two headings read alike, the source gives them in different places.
How the values were obtained:
[1] = In vivo pharmacokinetics in rats; details: rat; for AUC(0-inf): read-out: AUCinf of DT; for AUC(0-t): read-out: AUClast of DT; for half-life: read-out: T1/2 of DT (converted)
Experimental: Pharmacokinetic parameters were calculated using a non-compartmental analysis model with WinNonlin® software version 5.3 (Pharsight Corp., Mountain View, CA, USA). All quantitative data are presented as mean ± standard deviation (SD) or standard error of the mean (SEM), as indicated. Statistical analyses were performed using one-way analysis of variance (ANOVA) to assess differences among groups, followed by Tukey’s post hoc test for multiple comparisons. A p-value less than 0.05 (p < 0.05) was considered statistically significant.

[2] = test system: rat intestinal segments; assay: In situ single-pass rat intestinal perfusion (Peff); type: in vivo, Sprague–Dawley rats; details: low-permeability reference, 100 µg/mL in perfusion buffer
Experimental: The in situ single-pass intestinal effective permeability (Peff) of AT/DT dispersed in 0.5% DMSO and AT/DT-NE#E was evaluated in rats. Sprague–Dawley rats were selected due to their well-characterized gastrointestinal physiology, suitability for serial perfusion sampling, and widespread use in oral absorption and permeability studies. Prior to the procedure, the rats were fasted for 12–16 h with free access to water. Anesthesia was induced via intramuscular injection of a tiletamine·HCl–zolazepam mixture (1:1, w/w; 40 mg/kg). With the animals in a supine position, a midline longitudinal incision was made to expose the abdominal cavity. […]
After a 30 min equilibration period to establish steady-state conditions, outlet perfusates were collected at 15 min intervals over a period of 120 min. […] It was perfused under identical conditions, and fluorescence was measured at excitation/emission wavelengths of 494/512 nm using a multimode microplate reader (PerkinElmer).
Body temperature was maintained throughout the experiment using heated pads and a heat lamp. At the end of the study, the length and radius of each perfused intestinal segment were carefully measured without stretching. […]
The outlet concentrations of AT and DT were quantified via HPLC as described previously. […]

Structure (SMILES): CC(=O)O[C@@]12CO[C@@H]1C[C@H](O)[C@@]1(C)C(=O)[C@H](O)C3=C(C)[C@@H](OC(=O)[C@H](O)[C@@H](NC(=O)OC(C)(C)C)c4ccccc4)C[C@@](O)([C@@H](OC(=O)c4ccccc4)[C@H]21)C3(C)C [DT, Docetaxel]
- Cmax ([1]; plasma, IV, DT 5 mg/kg): 479 ± 45.3 ng/mL
- AUC(0-inf) ([1]; plasma, IV, DT 5 mg/kg): 4190 ± 264 ng·h/mL
- AUC(0-t) ([1]; plasma, IV, DT 5 mg/kg): 1450 ± 109 ng·h/mL
- half-life ([1]; plasma, IV, DT 5 mg/kg): 8.33 ± 7.84 h
- Tmax ([1]; plasma, oral, DT 10 mg/kg): 8 h
- bioavailability ([1]; plasma, oral, DT 10 mg/kg): 7.22 ± 0.924%
- AUC(0-inf) ([1]; plasma, oral, DT 10 mg/kg): 264 ± 38.3 ng·h/mL
- AUC(0-t) ([1]; plasma, oral, DT 10 mg/kg): 210 ± 26.8 ng·h/mL
- half-life ([1]; plasma, oral, DT 10 mg/kg): 8.67 ± 0.881 h
- Cmax of DT ([1]; oral, DT 10 mg/kg): 21.0 ± 5.17 ng/mL

Structure (SMILES): O=C1OC2(c3ccc(O)cc3Oc3cc(O)ccc32)c2ccccc21 [fluorescein]
- Peff [2]: 0.001 ± 0.002 ×10^−4 cm/s

Source: paper PMC12298815 (Pharmaceutics, 2025)
